Data from patent US8093273B2, “Flavanoids and isoflavanoids for the prevention and treatment of cardiovascular diseases” (Resverlogix Corp., priority 2004, dated 2012).
Where a name gives a salt, the structure may show the parent alone.

What was measured:
human ApoA-I promoter = assay: ApoA-I promoter induction in Caco-2 intestinal cells (pAI.474-Luc luciferase reporter); assay type: cell-based; conditions: Caco-2 cells, 15 μM, 48 hours incubation, luciferase activity vs control samples
Experimental: To examine the effects of compounds of the invention to increase ApoA-I expression, Caco-2 cells, an intestinal cell line derived from human epithelial intestinal cells, were grown under conditions recommended by the ATCC and summarized in United States Patent Application Publication No. 20040033480 (“Wong”), incorporated herein by reference.
Briefly, the promoter region of the gene encoding human ApoA-I was isolated and ligated upstream of the firefly luciferase gene to construct the reporter plasmid pAI.474-Luc. This reporter plasmid and pRSV-β-galactosidase (as a control for transfection efficiency) were co-transfected to Caco-2 cells. The Caco-2 cells were then incubated in a MEM selection media containing 20% fetal calf serum supplemented with G418 (final concentration: 0.5 mg/mL, Gibco) to give established strains that stably express from the reporter gene. The strains were seeded in 6-well culture plates and incubated for 48 hours at 37° C. under 5% carbon dioxide. Cells were starved for 24 hrs in MEM selection media containing 0.5% FBS. Then, a solution of a compound of the invention in DMSO or other appropriate solvent was added to the wells at a final concentration of 0 to 100 μM in MEM selection media containing 0.5% FBS.
After further incubation for 48 hours, the cells were harvested and lysed using Reporter Lysis Buffer (PROMEGA E3971), and 50 μL of luciferase assay reagent (PROMEGA E4550 Luciferase Reporter 1000 assay system) was added to measure luciferase activity with a luminometer (Fluoroskan Ascent FL from Thermo electron Corporation). Luciferase activity was normalized to lysate protein concentrations, measured using Bradford Reagent (BioRad Protein Assay reagent Cat #500-0006). The luciferase activity of cells treated with various concentrations of test compounds was compared to that of solvent control sample (i.e., solvent without any compound of the present invention added) and untreated control sample.

| SMILES | melting point | ApoA-I Promoter Induction (human ApoA-I promoter) |
| --- | --- | --- |
| O=c1cc(-c2ccc(O)cc2[N+](=O)[O-])oc2ccccc12 [Example 10, 2-(4-Hydroxy-2-nitrophenyl)chromen-4-one] | 277 to 279 °C |  |
| O=c1cc(-c2ccc(O)cc2)oc2cc(F)cc(F)c12 [Example 2, 5,7-Difluoro-2-(4-hydroxyphenyl)-4H-chromen-4-one] |  | increased |
| Cl.Nc1cccc2c(=O)cc(-c3ccc(O)c(F)c3)oc12 | 256.4 to 258.5 °C |  |
| CC(=O)Oc1ccc(-c2cc(=O)c3cc(Br)cc([N+](=O)[O-])c3o2)cc1F [Example 25, 4-(6-Bromo-8-nitro-4-oxo-4H-chromen-2-yl)-2-fluorophenyl acetate] | 236.2 to 238.5 °C | increased |
| O=c1c(CO)c(-c2ccc(O)cc2)oc2ccccc12 [Example 22, 3-(Hydroxymethyl)-2-(4-hydroxyphenyl)-4H-chromen-4-one] | 234 to 235 °C |  |
| N=C(N)NCCCC(N)C(=O)Oc1ccc(-c2cc(=O)c3ccccc3o2)cc1 (centres unmarked) [Example 76, 2-Amino-5-guanidino-pentanoic acid 4-(4-oxo-4H-chromen-2-yl)phenyl ester trihydrochloride] |  | increased |
| N#CCc1c(-c2ccc(O)cc2)oc2ccccc2c1=O [Example 21, 2-(2-(4-Hydroxyphenyl)-4-oxo-4H-chromen-3-yl)acetonitrile] | 258.2 to 259.5 °C | increased |
| COc1cc(OC)c2c(=O)cc(-c3ccc(O)cc3)oc2c1 [Example 18, 2-(4-Hydroxyphenyl)-5,7-dimethoxy-4H-chromen-4-one] | 301 to 303 °C | increased |
| O=c1cc(-c2ccc(O)cc2)oc2c1ccc[n+]2[O-] [Example 31, 2-(4-Hydroxyphenyl)-4-oxo-4H-pyrano[2,3-b]pyridine 8-oxide] | 314 to 315 °C | no increase |
| CC(=O)Nc1cc(O)ccc1-c1cc(=O)c2ccccc2o1 [Example 8, N-[5-Hydroxy-2-(4-oxo-4H-chromen-2-yl)-phenyl]acetamide] | 253 to 255 °C |  |
| O=c1nc(-c2ccc(O)cc2)oc2ccccc12 [Example 67, 2-(4-Hydroxyphenyl)benzo[e][1,3]oxazin-4-one] | 273 to 275 °C | increased |
| O=c1cc(-c2ccc(O)cc2)oc2ccc(O)cc12 [6-hydroxy-2-(4-hydroxyphenyl)-4H-chromen-4-one, reference compound] |  | increased |
| O=c1cc(-c2ccc(C[n+]3ccccc3)cc2)oc2ccc(O)cc12.[Cl-] | 243 to 247 °C |  |
| COc1ccc(-c2cc(=O)c3c(F)cc(F)cc3o2)cc1 [Example 1, 5,7-Difluoro-2-(4-methoxy-phenyl)-chromen-4-one] |  | no increase |
| CN(C)Cc1c(-c2ccc(O)cc2)oc2ccccc2c1=O.Cl [Example 20, 3-((Dimethylamino)methyl)-2-(4-hydroxyphenyl)-4H-chromen-4-one hydrochloride] | 271.5 to 272.3 °C | no increase |
| O=c1cc(-c2ccc(O)cc2)[nH]c2cc(O)cc(O)c12 [Example 50, 5,7-Dihydroxy-2-(4-hydroxyphenyl)-quinolin-4(H)-one] |  | increased |
| N#Cc1ccc(-c2cc(=O)c3cccnc3o2)cc1 [Example 40, 4-(4-Oxo-4H-pyrano[2,3-b]pyridine-2-yl)benzonitrile] | 250 to 252 °C | increased |
| O=c1cc(-c2ccc(O)cc2)oc2cc(O)ccc12 [7-Hydroxy-2-(4-hydroxy-phenyl)-chromen-4-one, reference compound] |  | increased |
| Oc1ccc(C2=COc3ccccc3O2)cc1 [Example 70, 4-(Benzo[b][1,4]dioxin-2-yl)phenol] | 137 to 140 °C | increased |
| Oc1ccc(-c2ccc3ccccc3c2)cc1 [Example 65, 4-Naphthalen-2-yl-phenol] |  | increased |
| CNc1nc(-c2ccc(O)c(F)c2)cc2c(OC)cccc12 [Example 58, 2-Fluoro-4-(5-methoxy-1-(methylamino)isoquinolin-3-yl)phenol] | 185 to 187 °C |  |
| O=c1cc(-c2ccc(O)cc2F)oc2ccccc12 [Example 15, 2-(2-Fluoro-4-hydroxyphenyl)chromen-4-one] | 287 to 289 °C |  |

| SMILES | melting point | ApoA-I Promoter Induction (human ApoA-I promoter) |
| --- | --- | --- |
| COc1ccc(-c2cc(=O)c3ccccc3o2)cc1 [Example 4, 2-(4-Methoxy-phenyl)-4H-chromen-4-one] |  | increased |
| COc1cccc2c(=O)[nH]c(-c3ccc(O)c(F)c3)cc12 [Example 59, 3-(3-Fluoro-4-hydroxyphenyl)-5-methoxyisoguinolin-1(2H)-one] | 289 to 291 °C | increased |
| O=c1cc(-c2ccc(O)cc2)oc2ccccc12 [2-(4-Hydroxyphenyl)-chromen-4-one, 2-(4-Hydroxy-phenyl)-chromen-4-one, reference compound] |  | increased |
| O=c1cc(-c2ccc([N+](=O)[O-])cc2)oc2ncccc12 [Example 80, 2-(4-Nitrophenyl)-4H-pyrano[2,3-b]pyridine-4-one] | 261 to 263 °C | no increase |
| O=c1cc(-c2ccccc2)oc2cc(O)ccc12 [7-Hydroxy-2-phenyl-4H-chromen-4-one, 7-hydroxy-2-phenyl-4H-chromen-4-one, reference compound] |  | increased |
| O=c1cc(-c2ccc(O)c(Br)c2)oc2ccccc12 [Example 19, 2-(3-Bromo-4-hydroxyphenyl)-4H-chromen-4-one] | 273.5 to 274.9 °C | increased |
| CC(=O)Oc1ccc(C2=COc3ccccc3O2)cc1 [Example 77, 4-(Benzo[b][1,4]dioxin-2-yl)phenyl acetate] | 123 to 125 °C | increased |
| O=c1cc(-c2cccc(O)c2)oc2ccccc12 [2-(3-Hydroxyphenyl)-4H-chromen-4-one, 2-(3-hydroxyphenyl)-4H-chromen-4-one, reference compound] |  | increased |
| O=c1cc(-c2ccccc2)oc2ccccc12 [2-Phenyl-4H-chromen-4-one, 2-phenyl-4H-chromen-4-one, reference compound] |  | increased |
| O=c1c(-c2ccc(O)cc2)coc2ncccc12 [Example 85, 3-(4-Hydroxyphenyl)-4H-pyrano[2,3-b]pyridine-4-one] | 262 to 264 °C | increased |
| O=c1c(-c2ccc(O)cc2)coc2cc(O)cc(O)c12 [5,7-dihydroxy-3-(4-hydroxyphenyl)-4H-chromen-4-one, reference compound] |  | increased |
| COc1cc(-c2cc(=O)c3ccccc3o2)ccc1O [2-(4-hydroxy-3-methoxyphenyl)-4H-chromen-4-one, reference compound] |  | increased |
| O=c1cc(-c2ccc(O)cc2)oc2cccc(O)c12 [5-Hydroxy-2-(4-hydroxy-phenyl)-chromen-4-one, reference compound] |  | increased |
| CN(C)Cc1ccc2oc(-c3ccc(O)cc3)cc(=O)c2c1 [Example 28, 6-((Dimethylamino)methyl)-2-(4-hydroxyphenyl)-4H-chromen-4-one] | 99 to 102 °C |  |
| O=c1cc(-c2ccc(O)cc2)oc2c(O)cccc12 [Example 5, 8-Hydroxy-2-(4-hydroxy-phenyl)-4H-chromen-4-one] |  | increased |
| O=c1cc(-c2ccc(O)cc2)oc2cc[n+]([O-])cc12 [Example 32, 2-(4-Hydroxyphenyl)-4-oxo-4H-pyrano[3,2-c]pyridine 6-oxide] |  | no increase |
| Oc1ccc(-c2ccc3ccccc3c2)nc1 [Example 68, 6-Naphthalen-2-yl-pyridin-3-ol] | 168 to 169 °C |  |
| N#Cc1ccc2oc(-c3ccc(O)cc3)cc(=O)c2c1 [Example 23, 2-(4-Hydroxyphenyl)-4-oxo-4H-chromene-6-carbonitrile] | 296 to 298 °C |  |
| O=c1cc(-c2ccccc2)oc2cccc(O)c12 [5-Hydroxy-2-phenyl-4H-chromen-4-one, 5-Hydroxy-2-phenyl-chromen-4-one, reference compound] |  | increased |
| O=c1cc(-c2ccc(O)cc2)oc2c([N+](=O)[O-])cccc12 [Example 16, 2-(4-Hydroxyphenyl)-8-nitro-4H-chromen-4-one] | 299 to 301 °C |  |
| O=C1C=C(c2ccc(O)cc2)S(=O)(=O)c2ccccc21 [Example 66, 2-(4-Hydroxy-phenyl)-1,1-dioxo-1H-1λ^6-thiochromen-4-one] | 222 to 224 °C |  |
